Laboratory results: patent publication US20250049036A1 (priority 2021, published 2025)

Tests used:
Phytophthora infestans [1] = assay: whole plant or invertebrate; format: in vivo, Phytophthora infestans on tomato; settings: in Solanum lycopersicum, read-out: control (efficacy, disease severity) compared to the untreated check
Phakopsora pachyrhizi = Phakopsora pachyrhizi test on soybean, preventive, greenhouse; format: in vivo; settings: preventive spray on soybean, inoculated one day after treatment, read-out: control (efficacy, disease severity) compared to the untreated check
Outline: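 Greenhouse-grown young soybean plants were sprayed with compound (2% DMSO/acetone, emulsifier in water) at the stated rate. One day later they were inoculated with 2×10^5 P. pachyrhizi inoculum and held at 22-24 °C, 80-90% relative humidity for disease development.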

Pyricularia oryzae = assay: microbe, parasite or virus in culture; format: cell-based; settings: 168 h, read-out: control compared to the untreated check
Botrytis cinerea [2] = assay: Botrytis cinerea test on tomato, preventive, greenhouse; format: in vivo; settings: preventive spray on bean/chili plants (heading: tomato), inoculated one day after treatment, read-out: control (efficacy, disease severity) compared to the untreated check
Colletotrichum capsici = Colletotrichum capsici (anthracnose) mycelial radial growth on potato dextrose agar; format: cell-based; settings: Colletotrichum truncatum, 168 h, 25° C., seven days, read-out: control compared to the untreated check
Outline: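 Compounds in 0.3% DMSO were mixed into potato dextrose agar, and each plate was seeded with a 5 mm mycelial disc from an actively growing culture. Plates were incubated at 25° C and 60% relative humidity for seven days. Radial growth was compared with untreated control.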

Venturia Inequalis = assay: Venturia inequalis (VENTIN) spore growth inhibition in liquid medium, 96-well microtiter plate, OD 600; format: cell-based; settings: spore suspension in PDB liquid medium, 18° C., 15-18 days, OD at 600, read-out: control compared to the untreated check
Description: Potato dextrose (PDB) liquid medium containing a VENTIN (10^5 spores/ml) spore suspension was prepared. For the inhibition assay, each test compound was solved in dimethyl sulfoxide. 100 μl of the test compound in media-solution was added to a 96-well microtiter plate, consequently, the same volume (100 μl) of spore suspension was added to the well making the final test concentrations and the treated plate was incubated at 18° C. for 15-18 days. The growth inhibition was evaluated by measuring the OD at 600. Percent inhibition was calculated with the below formula: […]

Phytophthora infestans [3] = assay: microbe, parasite or virus in culture; format: cell-based; settings: 168 h, read-out: control compared to the untreated check
Parastagonospora nodorum = Parastagonospora nodorum (PARANO) spore growth inhibition in liquid medium, 96-well microtiter plate, OD 600; format: cell-based; settings: spore suspension in PDB liquid medium, 18° C., 5-6 days, OD at 600, read-out: control compared to the untreated check
Outline: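 Read-out is percent growth inhibition from OD at 600 after 5-6 days at 18° C. Compounds, dissolved in DMSO, were diluted in potato dextrose broth and combined in equal volume with a 10^5 spores/ml suspension of PARANO.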

Botrytis cinerea [4] = assay: Botrytis cinerea (gray mold) mycelial radial growth on potato dextrose agar; format: cell-based; settings: 168 h, 22° C., seven days, read-out: control compared to the untreated check
Description: The compounds were dissolved in 0.3% dimethyl sulfoxide and then added to potato dextrose agar medium just prior to dispensing it into petri dishes. 5 mL medium, with the compound in the desired concentration, was dispensed into 60 mm sterile petri-plates. After solidification, each plate was seeded with a 5 mm size mycelial disc taken from the periphery of an actively growing virulent culture plate. The plates were incubated in growth chambers at 22° C. temperature and 90% relative humidity for seven days and the radial growth was measured and compared to the one of the untreated control.

Botrytis cinerea [5] = assay: Botrytis cinerea liq. (BOTRCI) spore growth inhibition in liquid medium, 96-well microtiter plate, OD 405 nm; format: cell-based; settings: spore suspension in YBA liquid medium, 22° C., 5-6 days, OD at 405 nm, read-out: control compared to the untreated check
Description: Yeast bacterial peptone and sodium acetate (YBA) liquid medium containing a BOTRCI (10^4 spores/ml) spore suspension was prepared. For the inhibition assay, each test compound was solved in dimethyl sulfoxide. 100 μl of the test compound in media-solution was added to a 96-well microtiter plate, consequently, the same volume (100 μl) of spore suspension was added to the well making the final test concentrations and the plate was incubated at 22° C. for 5-6 days. The growth inhibition was evaluated by measuring the OD at 405 nm. Percent inhibition was calculated with the below formula:
Where T=treatment, C=control, and B=blank

Cc1nc2c(ccn2C)cc1C(=O)NC(C)(C)Cc1ccccc1F [Compound 38, N-(1-(2-fluorophenyl)-2-methylpropan-2-yl)-1,6-dimethyl-1H-pyrrolo[2,3-b]pyridine-5-carboxamide]
≥ 70%: pest or weed control at 500 ppm (Phytophthora infestans [1]) | pest or weed control at 500 ppm (Phakopsora pachyrhizi) | inhibition of growth at 300 ppm (Pyricularia oryzae) | pest or weed control at 500 ppm (Botrytis cinerea [2])

Cn1ccc2cc(C(=O)NC3(Cc4ccccc4)CC3)cnc21 [Compound 39, N-(1-benzylcyclopropyl)-1-methyl-1H-pyrrolo[2,3-b]pyridine-5-carboxamide]
≥ 70%: pest or weed control at 500 ppm (Phytophthora infestans [1]) | inhibition of growth at 300 ppm (Colletotrichum capsici) | inhibition of growth at 300 ppm (Venturia Inequalis) | pest or weed control at 500 ppm (Phakopsora pachyrhizi) | inhibition of growth at 300 ppm (Phytophthora infestans [3]) | inhibition of growth at 300 ppm (Pyricularia oryzae)

Cc1nc2c(ccn2C)cc1C(=O)NC(C)(C)C(C)c1ccccc1Cl (stereo not drawn) [Compound 40, N-(3-(2-chlorophenyl)-2-methylbutan-2-yl)-1,6-dimethyl-1H-pyrrolo[2,3-b]pyridine-5-carboxamide]
≥ 70%: inhibition of growth at 300 ppm (Parastagonospora nodorum) | pest or weed control at 500 ppm (Phytophthora infestans [1]) | pest or weed control at 500 ppm (Phakopsora pachyrhizi) | inhibition of growth at 300 ppm (Pyricularia oryzae) | inhibition of growth at 300 ppm (Botrytis cinerea [4])

CC(C)(Cc1ccc(F)cc1)NC(=O)c1cnc2[nH]ccc2c1 [Compound 41, N-(1-(4-fluorophenyl)-2-methylpropan-2-yl)-1H-pyrrolo[2,3-b] pyridine-5-carboxamide]
≥ 70%: pest or weed control at 500 ppm (Phytophthora infestans [1]) | inhibition of growth at 300 ppm (Venturia Inequalis) | pest or weed control at 500 ppm (Phakopsora pachyrhizi) | inhibition of growth at 300 ppm (Phytophthora infestans [3]) | pest or weed control at 500 ppm (Botrytis cinerea [2])

Cn1ccc2cc(C(=O)NC(C)(C)Cc3ccc(Cl)c(F)c3)cnc21 [Compound 42, N-(1-(4-chloro-3-fluorophenyl)-2-methylpropan-2-yl)-1-methyl-1H-pyrrolo[2,3-b]pyridine-5-carboxamide]
≥ 70%: inhibition of growth at 300 ppm (Parastagonospora nodorum) | pest or weed control at 500 ppm (Phytophthora infestans [1]) | pest or weed control at 500 ppm (Phakopsora pachyrhizi) | inhibition of growth at 300 ppm (Pyricularia oryzae)

Cn1ccc2cc(C(=O)NC(C)(C)Cc3cccc(Br)c3)cnc21 [Compound 48, N-(1-(3-bromophenyl)-2-methylpropan-2-yl)-1-methyl-1H-pyrrolo[2,3-b]pyridine-5-carboxamide]
≥ 70%: inhibition of growth at 300 ppm (Parastagonospora nodorum) | pest or weed control at 500 ppm (Phytophthora infestans [1]) | pest or weed control at 500 ppm (Phakopsora pachyrhizi) | inhibition of growth at 300 ppm (Pyricularia oryzae)

COc1ccccc1CC(C)(C)NC(=O)c1cnc2c(ccn2C)c1 [Compound 49, N-(1-(2-methoxyphenyl)-2-methylpropan-2-yl)-1-methyl-1H-pyrrolo[2,3-b]pyridine-5-carboxamide]
≥ 70%: inhibition of growth at 300 ppm (Venturia Inequalis) | pest or weed control at 500 ppm (Phakopsora pachyrhizi)

CC(C)CC(C)(Cc1ccccc1)NC(=O)c1cnc2c(c1)c(Cl)cn2C (stereo not drawn) [Compound 52, 3-chloro-N-(2,4-dimethyl-1-phenylpentan-2-yl)-1-methyl-1H-pyrrolo[2,3-b]pyridine-5-carboxamide]
≥ 70%: pest or weed control at 500 ppm (Phytophthora infestans [1]) | inhibition of growth at 300 ppm (Venturia Inequalis) | pest or weed control at 500 ppm (Phakopsora pachyrhizi)

Cn1cc(Cl)c2cc(C(=O)NC(C)(C)Cc3ccccc3)cnc21 [Compound 53, 3-chloro-1-methyl-N-(2-methyl-1-phenylpropan-2-yl)-1H-pyrrolo[2,3-b] pyridine-5-carboxamide]
≥ 70%: pest or weed control at 500 ppm (Phytophthora infestans [1]) | inhibition of growth at 300 ppm (Venturia Inequalis) | pest or weed control at 500 ppm (Phakopsora pachyrhizi) | inhibition of growth at 300 ppm (Pyricularia oryzae)

Cn1cc(F)c2cc(C(=O)NC(C)(C)Cc3ccccc3F)cnc21 [Compound 68, 3-fluoro-N-(1-(2-fluorophenyl)-2-methylpropan-2-yl)-1-methyl-1H-pyrrolo[2,3-b]pyridine-5-carboxamide]
≥ 70%: pest or weed control at 500 ppm (Phytophthora infestans [1]) | inhibition of growth at 300 ppm (Venturia Inequalis) | pest or weed control at 500 ppm (Phakopsora pachyrhizi)

Cn1cc(F)c2cc(C(=O)NC(C)(C)Cc3ccc(Cl)c(F)c3)cnc21 [Compound 69, N-(1-(4-chloro-3-fluorophenyl)-2-methylpropan-2-yl)-3-fluoro-1-methyl-1H-pyrrolo[2,3-b]pyridine-5-carboxamide]
≥ 70%: pest or weed control at 500 ppm (Phytophthora infestans [1]) | inhibition of growth at 300 ppm (Venturia Inequalis) | inhibition of growth at 300 ppm (Pyricularia oryzae)

CC(c1ccccc1Cl)C(C)(C)NC(=O)c1cnc2c(c1)c(F)cn2C (stereo not drawn) [Compound 71, N-(3-(2-chlorophenyl)-2-methylbutan-2-yl)-3-fluoro-1-methyl-1H-pyrrolo[2,3-b]pyridine-5-carboxamide]
≥ 70%: pest or weed control at 500 ppm (Phytophthora infestans [1]) | pest or weed control at 500 ppm (Phakopsora pachyrhizi) | inhibition of growth at 300 ppm (Pyricularia oryzae)

CC(CCc1ccccc1)NC(=O)c1cnc2c(ccn2C)c1 (stereo not drawn) [Compound 75, 1-methyl-N-(4-phenylbutan-2-yl)-1H-pyrrolo[2,3-b]pyridine-5-carboxamide]
≥ 70%: inhibition of growth at 300 ppm (Parastagonospora nodorum) | pest or weed control at 500 ppm (Phytophthora infestans [1]) | inhibition of growth at 300 ppm (Colletotrichum capsici) | inhibition of growth at 300 ppm (Venturia Inequalis) | pest or weed control at 500 ppm (Phakopsora pachyrhizi) | inhibition of growth at 300 ppm (Botrytis cinerea [5]) | inhibition of growth at 300 ppm (Botrytis cinerea [4]) | pest or weed control at 500 ppm (Botrytis cinerea [2])

Cn1ccc2cc(C(=O)NCC3(c4ccccc4)CC3)cnc21 [Compound 79, 1-methyl-N-((1-phenylcyclopropyl)methyl)-1H-pyrrolo [2,3-b]pyridine-5-carboxamide]
≥ 70%: inhibition of growth at 300 ppm (Parastagonospora nodorum) | pest or weed control at 500 ppm (Phytophthora infestans [1]) | inhibition of growth at 300 ppm (Venturia Inequalis) | inhibition of growth at 300 ppm (Phytophthora infestans [3]) | inhibition of growth at 300 ppm (Pyricularia oryzae)

Cn1cc(Cl)c2cc(C(=O)NC(C)(C)Cc3ccccc3Cl)cnc21 [Compound 83, 3-chloro-N-(1-(2-chlorophenyl)-2-methylpropan-2-yl)-1-methyl-1H-pyrrolo[2,3-b]pyridine-5-carboxamide]
≥ 70%: pest or weed control at 500 ppm (Phytophthora infestans [1]) | inhibition of growth at 300 ppm (Venturia Inequalis) | pest or weed control at 500 ppm (Phakopsora pachyrhizi) | inhibition of growth at 300 ppm (Pyricularia oryzae) | pest or weed control at 500 ppm (Botrytis cinerea [2])

CC(C)(COC(=O)c1cccc(F)c1)NC(=O)c1cnc2c(c1)CCC2 [Compound 145, 2-(6,7-dihydro-5H-cyclopenta[b]pyridine-3-carboxamido)-2-methylpropyl 3-fluorobenzoate]
≥ 70%: pest or weed control at 500 ppm (Phytophthora infestans [1])

CC(C)(COC(=O)c1cccc(F)c1)NC(=O)c1cnc2[nH]ccc2c1 [Compound 146, 2-methyl-2-(1H-pyrrolo[2,3-b]pyridine-5-carboxamido)propyl 3-fluorobenzoate]
≥ 70%: inhibition of growth at 300 ppm (Venturia Inequalis) | pest or weed control at 500 ppm (Phakopsora pachyrhizi) | inhibition of growth at 300 ppm (Phytophthora infestans [3])

C=C(C)CC(C)(COc1ccccc1F)NC(=O)c1cnc2c(c1)CCC2 (stereo not drawn) [Compound 160, N-(1-(2-fluorophenoxy)-2,4-dimethylpent-4-en-2-yl)-6,7-dihydro-5H-cyclopenta[b]pyridine-3-carboxamide]
≥ 70%: inhibition of growth at 300 ppm (Parastagonospora nodorum) | inhibition of growth at 300 ppm (Colletotrichum capsici) | inhibition of growth at 300 ppm (Venturia Inequalis) | inhibition of growth at 300 ppm (Botrytis cinerea [4])

CC(C)(COC(=O)c1ccccc1C(F)(F)F)NC(=O)c1cnc2ccsc2c1 [Compound 161, 2-methyl-2-(thieno[3,2-b]pyridine-6-carboxamido)propyl 2-(trifluoromethyl)benzoate]
≥ 70%: inhibition of growth at 300 ppm (Venturia Inequalis) | inhibition of growth at 300 ppm (Pyricularia oryzae)

Cn1ccc2cc(C(=O)NC(C)(C)COC(=O)c3ccccc3C(F)(F)F)cnc21 [Compound 167, 2-methyl-2-(1-methyl-1H-pyrrolo[2,3-b]pyridine-5-carboxamido)propyl 2-(trifluoromethyl)benzoate]
≥ 70%: inhibition of growth at 300 ppm (Venturia Inequalis)
